What is called pKa is the negative logarithm of the acid dissociation constant. Low readings indicate a group that gives up its proton readily, high ones a group that holds its proton tightly.

The nature of the data set: physchem.

Description: The pKa of a lipid is the pH at which 50% of the lipids are charged, lying halfway between the point where the lipids are completely charged and the point where the lipids are completely uncharged.
The pKa of a lipid is measured in water at standard temperature and pressure using the following technique: • 2 mM solution of lipid in ethanol is prepared by weighing the lipid and dissolving in ethanol. 0.3 mM solution of fluorescent probe toluene nitrosulphonic acid (TNS) in ethanol:methanol 9:1 is prepared by first making 3 mM solution of TNS in methanol and then diluting to 0.3 mM with ethanol. • An aqueous buffer containing sodium phosphate, sodium citrate sodium acetate and sodium chloride, at the concentrations 20 mM, 25 mM, 20 mM and 150 mM, respectively, is prepared. The buffer is split into eight parts and the pH adjusted either with 12N HCl or 6N NaOH to 4.44-4.52, 5.27, 6.15-6.21, 6.57, 7.10-7.20, 7.72-7.80, 8.27-8.33 and 10.47-11.12. 400 uL of 2 mM lipid solution and 800 uL of 0.3 mM TNS solution are mixed. • 7.5 μL of probe/lipid mix are added to 242.5 μL of buffer in a 1 mL 96 well plate. This is done with all eight buffers. […]

As for `CCCCC/C=C\C/C=C\CCCCCCCCOCC(CN1CCCC1C)OCCOCCOCCNC(=O)CCC(=O)O[C@H]1CC[C@@]2(C)C(=CC[C@H]3[C@@H]4CC[C@H]([C@H](C)CCCC(C)C)[C@@]4(C)CC[C@@H]32)C1` (some centres unmarked) [RV10], the pKa is 7.86.
For `CCCCC/C=C\C/C=C\CCCCCCCCOCC(CN1CCC(C)(C)C1)OCCOCCO[C@H]1CC[C@@]2(C)C(=CC[C@H]3[C@@H]4CC[C@H]([C@H](C)CCCC(C)C)[C@@]4(C)CC[C@@H]32)C1` (some centres unmarked) [RV05], the pKa worked out at 5.85.

For the origin of these results see US20130189351A1, “LIPIDS SUITABLE FOR LIPOSOMAL DELIVERY OF PROTEIN CODING RNA” (priority 2010, published 2013).
